The results in this text go back to ChEMBL document CHEMBL1146757, “Silanediol peptidomimetics. Evaluation of four diastereomeric ACE inhibitors” (Bioorg Med Chem Lett, 2004).

In general, pIC50 refers to the IC50 on a negative log10 scale, so that one unit is a factor of ten. A higher pIC50 goes with a small IC50.

pIC50: −log10 of the molar value.

The target of this assay is T1, Angiotensin-converting enzyme (Oryctolagus cuniculus, UniProt P12822).
T1 sequence (P12822 whole entry): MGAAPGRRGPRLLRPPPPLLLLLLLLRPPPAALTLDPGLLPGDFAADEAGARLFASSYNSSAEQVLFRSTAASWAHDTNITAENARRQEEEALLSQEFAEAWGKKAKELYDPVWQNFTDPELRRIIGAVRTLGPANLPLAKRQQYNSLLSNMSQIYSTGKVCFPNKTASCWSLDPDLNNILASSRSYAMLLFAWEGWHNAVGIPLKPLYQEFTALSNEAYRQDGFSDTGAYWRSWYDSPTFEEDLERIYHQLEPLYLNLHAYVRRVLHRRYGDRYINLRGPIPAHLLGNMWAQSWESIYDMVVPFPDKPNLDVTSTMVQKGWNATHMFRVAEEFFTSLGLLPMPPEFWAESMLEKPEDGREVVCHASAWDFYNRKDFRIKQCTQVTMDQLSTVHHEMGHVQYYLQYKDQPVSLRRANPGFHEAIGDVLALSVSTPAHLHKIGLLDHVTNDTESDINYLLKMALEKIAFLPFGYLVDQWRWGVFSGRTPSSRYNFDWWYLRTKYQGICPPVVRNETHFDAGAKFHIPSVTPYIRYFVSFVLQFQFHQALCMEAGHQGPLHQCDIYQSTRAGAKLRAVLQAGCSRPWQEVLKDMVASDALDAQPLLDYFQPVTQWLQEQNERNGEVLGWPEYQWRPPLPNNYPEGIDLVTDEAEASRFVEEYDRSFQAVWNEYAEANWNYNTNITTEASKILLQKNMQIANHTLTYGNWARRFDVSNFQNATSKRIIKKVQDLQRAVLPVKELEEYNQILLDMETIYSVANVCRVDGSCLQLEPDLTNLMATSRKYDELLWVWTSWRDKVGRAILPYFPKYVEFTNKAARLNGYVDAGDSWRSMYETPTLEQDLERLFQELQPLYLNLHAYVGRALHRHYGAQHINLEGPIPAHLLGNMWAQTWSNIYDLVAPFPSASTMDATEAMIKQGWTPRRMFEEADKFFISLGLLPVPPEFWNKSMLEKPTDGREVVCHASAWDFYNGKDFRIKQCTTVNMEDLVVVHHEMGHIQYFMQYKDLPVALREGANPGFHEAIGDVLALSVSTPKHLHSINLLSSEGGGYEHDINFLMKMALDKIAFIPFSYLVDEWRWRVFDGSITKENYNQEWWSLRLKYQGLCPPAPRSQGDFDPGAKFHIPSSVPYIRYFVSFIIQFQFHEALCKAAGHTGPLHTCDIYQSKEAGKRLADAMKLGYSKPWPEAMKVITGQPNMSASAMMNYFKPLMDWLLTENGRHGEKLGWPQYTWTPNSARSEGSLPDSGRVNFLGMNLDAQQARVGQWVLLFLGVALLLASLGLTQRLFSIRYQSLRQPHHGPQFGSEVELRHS
As to the kind of experiment: Inhibitory activity of compound against angiotensin I converting enzyme was determined.
In the case of `C[C@@H](C[Si](O)(O)[C@@H](Cc1ccccc1)NC(=O)c1ccccc1)C(=O)N1CCC[C@H]1C(=O)O`, the pIC50 was 7.14. In turn, `C[C@H](C[Si](O)(O)[C@@H](Cc1ccccc1)NC(=O)c1ccccc1)C(=O)N1CCC[C@H]1C(=O)O` had a pIC50 of 7.72.

`CC(C)CC(NC(=O)c1ccccc1)[Si](O)(O)CC(C)C(=O)N1CCC[C@H]1C(=O)O` (stereo not given in full) had a pIC50 of 7.85. To `C[C@@H](C[Si](O)(O)[C@H](Cc1ccccc1)NC(=O)c1ccccc1)C(=O)N1CCC[C@H]1C(=O)O` belongs 6.68; to `C[C@H](C[Si](O)(O)[C@H](Cc1ccccc1)NC(=O)c1ccccc1)C(=O)N1CCC[C@H]1C(=O)O`, 8.42.
